The target of assay [1] is T1, HST2 (Saccharomyces cerevisiae, UniProt P53686). Kind of assay: HST2 steady-state deacetylation reactions, substrate saturation curves (HPLC). Type of assay: biochemical, yeast. An excerpt:
Materials. [^3H]Acetyl-CoA (1.88 Ci/mmol) and Na-[^3H]-acetate (100,000 cpm/nmol) was from NEN Life Sciences Products. Nicotinamide, ADP-ribose, and nicotinamide adenine dinucleotide (NAD) were purchased from Sigma Chemical Company. Histone H3 peptide, […] and the Lysine 14 acetylated H3 peptide (AcLys-14), corresponding to the 20 amino-terminal residues of human histone H3 was synthesized by the Protein Chemistry Core Lab at Baylor College of Medicine. Histidine tagged full length HST2 was recombinantly expressed and purified from Escherichia coli BL21DE3 bacteria using a T7 polymerase-based expression. […] HST2 eluted at 200 mM imidazole and was determined to be >95% pure by scanning densitometry of commassie-stained SDS-PAGE. […] The peaks of absorbance at 214/260 nm were collected and subjected to mass spectral analysis. [^3H]-acetate was detected by liquid scintillation counting. […]
Typical HST2 steady-state reactions to monitor deacetylation of AcLys-14 H3 peptide or nicotinamide formation were carried out at 37° C. in 50 mM Tris, pH 7.5 buffer. Rates of product formation were determined at various concentrations of AcLys-14 H3 peptide (5-300 μM) and NAD^+ (5-600 μM). During the linear portion of the initial velocity, the reactions were quenched with TFA to 1% and product formation was monitored by the HPLC analysis described above. […]

Assay [2] concerns poly(ADP-ribosyl)transferases and SIR2 enzymes. Particulars: poly(ADP-ribosyl)transferases and SIR2 enzymes exhibit similar values; read-out: Km values for NAD^+; cited from earlier work.
A further assay has as its target T2, SIR2 family of enzymes (Saccharomyces cerevisiae, UniProt P53686).
T2 construct: Histidine tagged full length HST2 was recombinantly expressed and purified from Escherichia coli BL21DE3 bacteria; Histidine tag; made in house; host or cells: Escherichia coli BL21DE3
Kind of assay: HST2 steady-state reactions with NGD as alternative substrate to NAD. Type of assay: biochemical. An excerpt:
The details of the reaction conditions are as described in the materials and methods section. This enzymatic process may be used to advantage to generate novel O-acetyl-nucleotide analogs. These analogs may be used in the development of inhibitors for SIR2 and SIR homologs, or for the proteins/enzymes that normally bind/utilize O-acetyl-ADP ribose. More importantly, these enzyme-derived nucleotide analogs may serve as potent therapeutics for cancer and aging, releasing the block for transcriptionally-silenced genes that have been inappropriately silenced during tumorigenesis and aging, as discussed earlier.
Typical HST2 steady-state reactions to monitor deacetylation of AcLys-14 H3 peptide or nicotinamide formation with nicotinamide guanine dinucleotide (NGD) as an alternative substrate to NAD were carried out at various concentrations of AcLys-14 H3 peptide (5-100 μM) and NGD (10-400 μM). During the linear portion of the initial velocity, the reactions were monitored by reverse phase HPLC analysis on a Beckman Ultrasphere column (4.6 mm×15 cm). Samples were injected in 0.05% trifluoroacetic acid (TFA)/H2O for 1 min before a linear gradient of 0-40% acetontrile in 1-41 min.

The target in assay [3] is T1, HST2. Kind of assay: Rapid-reaction single turnover quench-flow analysis. It is filed as biochemical, yeast. Particulars: HST2, excess NAD^+, sub-stoichiometric [^3H]-AcLys14 H3, 22±3° C., pH 7.5, single exponential fit. The text has this:
FIGS. 5A-5C are a series of graphs showing that acetate is not a primary product of HST2-catalyzed histone/protein deacetylation. H3 peptide was stoichiometrically acetylated on Lys-14 by the histone acetyltransferase P/CAF and using [^3H]-AcCoA. Monoacetylated [^3H]-AcLys-14 H3 peptide was then purified by HPLC (FIG. 5A) and utilized as a substrate in the HST2 deacetylation reactions (FIG. 5B). Upon complete consumption of [^3H]-AcLys-14 H3 by HST2, all of the original [^3H] from H3 peptide was converted to a labeled product that eluted much later than authentic acetate. Conditions: 375 nM HST2, 175 μM NAD^+, 5 μM [^3H]-Lys14 AcH3, 1 mM DTT, for 1 min at 37° C. prior to quenching with TFA to a final concentration of 1%. FIG. 5C: Single turnover rapid quench-flow analysis. […] Quantification of [^3H]-AcLys14 H3 peptide (diamonds) and the [^3H]-acetate-adduct (circles) was accomplished by liquid scintillation counting of these species separated using reverse phase HPLC. […]
P/CAF [^3H]-monoacetylation of H3 peptide. […] Every mass spectrum was recorded as the sum of 20 consecutive spectra, each produced by a single pulse of photons. […] The amount of [^3H]-AcLys14 H3 peptide and [^3H]-O-acetyl ADP ribose was determined by liquid scintillation counting of these species separated on reverse phase HPLC. […]

Read-outs that look alike come from different tables or passages of the source.

T1 sequence (P53686 whole entry): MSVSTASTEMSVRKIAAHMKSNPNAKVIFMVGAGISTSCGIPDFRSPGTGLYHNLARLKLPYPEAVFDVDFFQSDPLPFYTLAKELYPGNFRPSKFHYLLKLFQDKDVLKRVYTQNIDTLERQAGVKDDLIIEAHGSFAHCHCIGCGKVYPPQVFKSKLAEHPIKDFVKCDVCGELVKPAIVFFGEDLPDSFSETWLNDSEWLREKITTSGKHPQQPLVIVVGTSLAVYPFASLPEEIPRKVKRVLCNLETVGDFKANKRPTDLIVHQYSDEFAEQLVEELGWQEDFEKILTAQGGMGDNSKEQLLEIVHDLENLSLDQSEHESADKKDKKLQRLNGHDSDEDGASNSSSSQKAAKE
T2 sequence (P53686 whole entry): as above

In general, Km refers to the concentration of substrate that gives half-maximal velocity. For the compound `NC(=O)c1ccc[n+]([C@@H]2O[C@H](COP(=O)([O-])OP(=O)(O)OC[C@H]3O[C@@H](n4cnc5c(N)ncnc54)[C@H](O)[C@@H]3O)[C@@H](O)[C@H]2O)c1` [NAD^+, nicotinamide adenine dinucleotide], the Km on HST2 [1] (37° C., 50 mM Tris pH 7.5, read-out: Km for NAD^+) was 70 µM; in assay [2] it was 50 to 70 µM.
On to `NC(=O)c1ccc[n+]([C@@H]2O[C@H](COP(=O)([O-])OP(=O)(O)OC[C@H]3O[C@@H](n4cnc5c(=O)[nH]c(N)nc54)[C@H](O)[C@@H]3O)[C@@H](O)[C@H]2O)c1` [NGD, nicotinamide guanine dinucleotide], for which, on SIR2 family of enzymes, the “ability to serve as substrate, generating O-acetyl-NDP ribose product” value is listed as “can serve as substrates for the SIR2 family of enzymes”.
Turning to “ARTKQTARKSTGG(AcK)APRKQL [AcLys-14 H3, reference compound]”, the Km on HST2 [1] (estimated, read-out: Km for AcLys-14 H3) is < 0.5 µM. Also, the “rate constant of AcLys-14 H3 peptide deacetylation (substrate consumption)” value on HST2 [3] turned out to be 2.0 ± 0.1 s⁻¹.
